This is an account of results in publication PMC3438169 (PLoS ONE, 2012).

Where a SMILES comes first, the peptide text is derived from it. The star is where a group is joined. Cbz = O=C(OCc1ccccc1)*

The test system of one test is HCT116. Nature of the test: Cell viability (CellTiter-Glo), HCT116 with siRNA or mEF-G1 variants. Type of test: cell-based, human. The conditions noted are these: 7 days. The procedure:
(§1) HCT116 (ATCC, CCL-247) and RKO (ATCC, CRL-2577) cell lines were maintained in a humidified incubator at 37°C and 5% CO2 in RPMI1640 supplemented with 10% FBS. Cell viability was determined using the CellTiter-Glo luminescent cell viability assay (Promega). […] Subsequently, 40 µl of CellTiter-Glo reagent was added to each well and luminescence recorded on an Envision plate reader (Perkin Elmer). Each treatment condition was tested in triplicate and compared to an equivalent volume of DMSO as control.
(§2) Non-targeting (NT) or GFM1 siRNA pools were obtained from Dharmacon (ON-TARGETplus SMART pool D-001810 and L-013685). HCT116 and RKO cells were reverse transfected in 6-well plates using RNAiMax (Invitrogen) and 25 nM siRNA. After 2 days, cells were harvested by trypsinization and re-plated into 6-well plates for western blot analysis or into 384-well plates for compound treatments and cell viability determination using CellTiter-Glo as described above.
(§3) The human GFM1 cDNA (encoding mEF-G1, Table 2) was mutagenized in pENTR221 (Invitrogen) using QuikChangeII XL site-directed mutagenesis (Stratagene). The following point mutations were introduced: C1355T (encoding S452L), C1481T (encoding S494F) and T2078A (encoding L693Q). The GFM1 cDNAs were then subcloned into the mammalian expression vector pLenti4/TO/V5 using LR clonase II (Invitrogen) and sequence-verified. The pLenti4 constructs were then co-transfected with a lentiviral plasmid mix (encoding LP1, LP2 and VSV-G) into 293T cells, and viral particles were harvested after 72 h and used to infect HCT116 and RKO cells. Stable cell lines were generated by selection with 400 µg/ml Zeocin and plated into 6-well plates for western blot analysis or into 384-well plates for compound treatments and cell viability determination using CellTiter-Glo as described above.

In another test the test system is RKO. Briefly: Cell viability (CellTiter-Glo), RKO with siRNA or mEF-G1 variants. In kind it is cell-based, human. The conditions noted are these: 7 days. How it is done: as §1, §2, §3
Background: Cellular ATP, detected with luciferase, serves as a proxy for viable cell number.

Test [1] relates to Cox4-GFP labeled mitochondria. Briefly: Microscopy of mitochondrial morphology (Cox4-GFP). Type of test: cell-based, S. cerevisiae. The conditions noted are these: Benomyl 3× IC30 (90 µM), 30 minutes. How it is done: BY4741 cells containing a genomic COX4-GFP fusion where grown to mid-log phase in glucose and ethanol/glycerol media and incubated with the corresponding concentrations of compound for 30 minutes. Aliquots where spotted on microscopy slides and directly imaged on a Zeiss Axiovert 200Mot microscope equipped with a AxioCam MRm digital camera using the Plan-Neofluar 100×, 1.3 oil PH3 objective (Carl Zeiss, Feldbach, Switzerland). A z-stack consisting of 3 images spaced by […] in the filterset 38 (eGFP) channel and a phase-contrast image where acquired. False colors where applied to the GFP images (green) and phase contrast (blue) and the images merged into one plane and scaled to 8-bit. Representative, individual cells where selected and assembled into a panel using Adobe Photoshop (Adobe Systems Inc.).

Test [2] concerns EF-G in complex with the ribosome. The following applies: ref [22], [23], [24]; cited from earlier work. From the text:
This may stand in contrast to the characterized inhibitor of EF-G, fusidic acid, which binds at the GDP/GTP binding pocket and interferes with the post translocation release of EF-G bound on the riboso ...

For test [3], the system named is 512 human cancer cell lines. Briefly: Compound correlation analysis across the cell line panel. Type of test: cell-based. The conditions noted are these: Pearson correlation across 512 cell lines. How it is done: All cell lines were maintained in humidified incubators at 37°C and 5% CO2 in DMEM or RPMI1640 supplemented with 10% FBS. Cells were seeded into 1536-well plates at a density of 250 cells per well, allowed to adhere for 12–24 hours, then treated for 3 days with pharmacological agents in 8-point dose response (semi-log from 8 µM to 2.5 nM), and cell viability was assessed using CellTiter Glo (Promega). […] Compound correlation analysis was performed by calculating a Pearson correlation for each compound pair (using either IC50 or Amax values) across the 512 cell lines. We required data values for a minimum of 50 cell lines in common to avoid spuriously high correlations.

The test system of the next test is apoptosis. The following applies: ref [6], [7], [8], [9]; cited from earlier work. From the text:
(§4) Natural products constitute a major resource for the identification of bioactive molecules. Indeed, most antibacterials in current use are natural products or semisynthetic derivatives thereof. The argyrins are natural peptides produced by myxobacteria and actinomycetes that have an intriguing antibacterial spectrum of activity, [2], [3]. This includes the intrinsically drug resistant organism Pseudomonas aeruginosa, but not other Gram negatives tested, such as Escherichia coli or Salmonella typhimurium, unless the cells are compromised in their outer membrane permeability barrier, p ...

The subject of the next test is angiogenesis. The following applies: p27-dependent mechanism; ref [6], [7], [8], [9]; cited from earlier work.
Text: as §4

For the next test, the system named is proteasome. The conditions noted are these: ref [6], [7], [8], [9]; cited from earlier work.
Text: as §4

Consider `CC(C)C[C@@H](C=O)NC(=O)[C@H](CC(C)C)NC(=O)[C@H](CC(C)C)NC(=O)OCc1ccccc1` [MG132, reference compound] (Cbz-Leu-Leu-Leu-aldehyde), for which the “Sensitivity change on knock down of mEF-G1 (in words)” value was “without altering sensitivity” with HCT116 (HCT116, GFM1 siRNA) and “without altering sensitivity” in the test on RKO (GFM1 siRNA). The “Sensitivity change on expression of mEF-G1 L693Q (in words)” value with HCT116 (HCT116, mEF-G1 L693Q) is listed as “without altering sensitivity”; in the test on RKO (mEF-G1 L693Q) it was “without altering sensitivity”.
Regarding `CCCCNC(=O)n1c(NC(=O)OC)nc2ccccc21` [benomyl, reference compound], the “Effect on mitochondria (in words)” value in test [1] was “had no effect on mitochondria”.
As to `CC(=O)O[C@H]1C[C@@]2(C)[C@@H](C[C@@H](O)[C@H]3[C@@]4(C)CC[C@@H](O)[C@@H](C)[C@@H]4CC[C@@]32C)/C1=C(\CCC=C(C)C)C(=O)O` [fusidic acid], the “Binding to EF-G (in words)” value in test [2] was “binds EF-G in complex with the ribosome”.
argyrin A: the “Correlation of IC50 and maximal activity (Amax) profile with argyrin B (in words)” value in test [3] is “strong correlation”. In addition, the “Apoptosis (in words)” value in the test with apoptosis is reported as “induces apoptosis”. Besides, the “Angiogenesis (in words)” value in the test with angiogenesis is “blocks angiogenesis”. The “Proteasome inhibition (in words)” value in the test on proteasome is listed as “inhibits the proteasome”.
